Assay results from patent US20070049564A1 (Wyeth, priority 2005, published 2007).
Converted amounts (≈) assume the structure as drawn. Like-named read-outs stand apart in the source and are kept apart here.

What was measured:
[1] = system: S. agalactiae GC 4564; assay: MIC, broth microdilution; details: Streptococcus agalactiae
[2] = system: E. faecalis GC 2267; assay: MIC, broth microdilution; details: Enterococcus faecalis
[3] = system: E. coli GC 2203; assay: MIC, broth microdilution; details: Escherichia coli
[4] = system: E. coli GC 3226; assay: MIC, broth microdilution; details: Escherichia coli
[5] = system: E. coli GC 2271; assay: MIC, broth microdilution; details: Escherichia coli
Description: Antimicrobial susceptibility testing. The in vitro activities of the antibiotics are determined by the broth microdilution method as recommended by the National Committee for Clinical Laboratory Standards (NCCLS) (1). Mueller-Hinton II broth (MHBII)(BBL Cockeysville, Md.) is the medium employed in the testing procedures. Microtiter plates containing serial dilutions of each antimicrobial agent are inoculated with each organism to yield the appropriate density (10^5 CFU/ml) in a 100 μl final volume. The plates are incubated for 18-22 hours at 35° C. in ambient air.
Representative compounds were first incubated in mouse serum for an hour prior to the in vitro testing against a panel of selected gram-positive and gram-negative bacteria strains. All compounds were also pre-incubated in water for an hour prior to testing as control.

[6] = system: S. pneumoniae* GC 4465; assay: MIC, broth microdilution; details: Streptococcus pneumoniae
[7] = system: E. coli GC 2232; assay: MIC, broth microdilution; details: Escherichia coli
[8] = system: E. faecalis GC 2265; assay: MIC, broth microdilution; details: Enterococcus faecalis
[9] = system: S. pyogenes GC 4563; assay: MIC, broth microdilution; details: Streptococcus pyogenes
[10] = system: S. aureus GC 1131; assay: MIC, broth microdilution; details: Staphylococcus aureus
[11] = system: Staph. aureus Smith; assay: In vivo activity (oral, iv; ED50) against Staph. aureus Smith in mice
Description: Representative examples of compounds of Formula I were tested for the oral efficacy using S. aureus Smith in mice.

[12] = system: P. aeruginosa GC 2214; assay: MIC, broth microdilution; details: Pseudomonas aeruginosa
[13] = system: E. coli GC 2236; assay: MIC, broth microdilution; details: Escherichia coli
[14] = system: S. epidermidis GC 4935; assay: MIC, broth microdilution; details: Staphylococcus epidermidis
[15] = system: E. coli GC 2234; assay: MIC, broth microdilution; details: Escherichia coli
[16] = system: E. coli GC 2272; assay: MIC, broth microdilution; details: Escherichia coli
[17] = system: S. aureus GC 6335; assay: MIC, broth microdilution; details: Staphylococcus aureus
[18] = system: S. pneumoniae+ GC 4465; assay: MIC, broth microdilution; details: Streptococcus pneumoniae
[19] = system: E. coli GC 4559; assay: MIC, broth microdilution; details: Escherichia coli
[20] = system: E. faecalis GC 4555; assay: MIC, broth microdilution; details: Enterococcus faecalis
[21] = GC4564, read-out: MINIMAL INHIBITORY CONCENTRATION MIC, pre-incubated in Mouse Serum
[22] = GC4564, read-out: MINIMAL INHIBITORY CONCENTRATION MIC, pre-incubated in Water
[23] = GC2267, read-out: MINIMAL INHIBITORY CONCENTRATION MIC, pre-incubated in Mouse Serum
[24] = GC2267, read-out: MINIMAL INHIBITORY CONCENTRATION MIC, pre-incubated in Water
[25] = GC2203, read-out: MINIMAL INHIBITORY CONCENTRATION MIC, pre-incubated in Mouse Serum
[26] = GC2203, read-out: MINIMAL INHIBITORY CONCENTRATION MIC, pre-incubated in Water
[27] = GC3226, read-out: MINIMAL INHIBITORY CONCENTRATION MIC, pre-incubated in Mouse Serum
[28] = GC3226, read-out: MINIMAL INHIBITORY CONCENTRATION MIC, pre-incubated in Water
[29] = GC2271, read-out: MINIMAL INHIBITORY CONCENTRATION MIC, pre-incubated in Mouse Serum
[30] = GC2271, read-out: MINIMAL INHIBITORY CONCENTRATION MIC, pre-incubated in Water
[31] = read-out: MINIMAL INHIBITORY CONCENTRATION MIC, pre-incubated in Mouse Serum
[32] = read-out: MINIMAL INHIBITORY CONCENTRATION MIC, pre-incubated in Water
[33] = GC2232, read-out: MINIMAL INHIBITORY CONCENTRATION MIC, pre-incubated in Mouse Serum
[34] = GC2232, read-out: MINIMAL INHIBITORY CONCENTRATION MIC, pre-incubated in Water
[35] = GC2265, read-out: MINIMAL INHIBITORY CONCENTRATION MIC, pre-incubated in Mouse Serum
[36] = GC2265, read-out: MINIMAL INHIBITORY CONCENTRATION MIC, pre-incubated in Water
[37] = GC4563, read-out: MINIMAL INHIBITORY CONCENTRATION MIC, pre-incubated in Mouse Serum
[38] = GC4563, read-out: MINIMAL INHIBITORY CONCENTRATION MIC, pre-incubated in Water
[39] = GC1131, read-out: MINIMAL INHIBITORY CONCENTRATION MIC, pre-incubated in Mouse Serum
[40] = GC1131, read-out: MINIMAL INHIBITORY CONCENTRATION MIC, pre-incubated in Water
[41] = Staphylococcus aureus, in Mus musculus, po, read-out: ED50 Staph Smith SOD
[42] = iv, read-out: ED50 Staph Smith SIV
[43] = GC2214, read-out: MINIMAL INHIBITORY CONCENTRATION MIC, pre-incubated in Mouse Serum
[44] = GC2214, read-out: MINIMAL INHIBITORY CONCENTRATION MIC, pre-incubated in Water
[45] = GC2236, read-out: MINIMAL INHIBITORY CONCENTRATION MIC, pre-incubated in Mouse Serum
[46] = GC2236, read-out: MINIMAL INHIBITORY CONCENTRATION MIC, pre-incubated in Water
[47] = GC4935, read-out: MINIMAL INHIBITORY CONCENTRATION MIC, pre-incubated in Mouse Serum
[48] = GC4935, read-out: MINIMAL INHIBITORY CONCENTRATION MIC, pre-incubated in Water
[49] = GC2234, read-out: MINIMAL INHIBITORY CONCENTRATION MIC, pre-incubated in Mouse Serum
[50] = GC2234, read-out: MINIMAL INHIBITORY CONCENTRATION MIC, pre-incubated in Water
[51] = GC2272, read-out: MINIMAL INHIBITORY CONCENTRATION MIC, pre-incubated in Mouse Serum
[52] = GC2272, read-out: MINIMAL INHIBITORY CONCENTRATION MIC, pre-incubated in Water
[53] = GC6335, read-out: MINIMAL INHIBITORY CONCENTRATION MIC, pre-incubated in Mouse Serum
[54] = GC6335, read-out: MINIMAL INHIBITORY CONCENTRATION MIC, pre-incubated in Water
[55] = GC4559, read-out: MINIMAL INHIBITORY CONCENTRATION MIC, pre-incubated in Mouse Serum
[56] = GC4559, read-out: MINIMAL INHIBITORY CONCENTRATION MIC, pre-incubated in Water
[57] = GC4555, read-out: MINIMAL INHIBITORY CONCENTRATION MIC, pre-incubated in Mouse Serum
[58] = GC4555, read-out: MINIMAL INHIBITORY CONCENTRATION MIC, pre-incubated in Water

## CCCN(CC(=O)Nc1cc(N(C)C)c2c(c1O)C(=O)C1=C(O)[C@]3(O)C(=O)C(C(N)=O)=C(O)[C@@H](N(C)C)[C@@H]3C[C@@H]1C2)C(=O)OCOC(=O)c1cccs1 [Example 25, ({[(2-{[(5aR,6aS,7S,10aS)-9-(aminocarbonyl)-4,7-bis(dimethylamino)-1,8,10a,11-tetrahydroxy-10,12-dioxo-5,5a,6,6a,7,10,10a,12-octahydrotetracen-2-yl]amino}-2-oxoethyl)(propyl)amino]carbonyl}oxy)methyl thiophene-2-carboxylate]
[1]; [21]
  MIC: 0.5 µg/mL (≈ 0.662 µM)
[1]; [22]
  MIC: 0.5 µg/mL (≈ 0.662 µM)
[2]; [23]
  MIC: 2 µg/mL (≈ 2.65 µM)
[2]; [24]
  MIC: 4 µg/mL (≈ 5.29 µM)
[3]; [25]
  MIC: 1 µg/mL (≈ 1.32 µM)
[3]; [26]
  MIC: > 64 µg/mL
[4]; [27]
  MIC: 2 µg/mL (≈ 2.65 µM)
[4]; [28]
  MIC: > 64 µg/mL
[5]; [29]
  MIC: 1 µg/mL (≈ 1.32 µM)
[5]; [30]
  MIC: 32 µg/mL (≈ 42.3 µM)
[6]; [31]
  MIC: 0.12 µg/mL (≈ 0.159 µM)
[6]; [32]
  MIC: 0.25 µg/mL (≈ 0.331 µM)
[7]; [33]
  MIC: 1 µg/mL (≈ 1.32 µM)
[7]; [34]
  MIC: > 64 µg/mL
[8]; [35]
  MIC: 2 µg/mL (≈ 2.65 µM)
[8]; [36]
  MIC: 2 µg/mL (≈ 2.65 µM)
[9]; [37]
  MIC: 0.12 µg/mL (≈ 0.159 µM)
[9]; [38]
  MIC: 0.25 µg/mL (≈ 0.331 µM)
[10]; [39]
  MIC: 0.5 µg/mL (≈ 0.662 µM)
[10]; [40]
  MIC: 0.5 µg/mL (≈ 0.662 µM)
[11]; [41]
  ED50: 15.7 mg/kg
[11]; [42]
  ED50: 0.56 mg/kg
[12]; [43]
  MIC: 32 µg/mL (≈ 42.3 µM)
[12]; [44]
  MIC: > 64 µg/mL
[13]; [45]
  MIC: 2 µg/mL (≈ 2.65 µM)
[13]; [46]
  MIC: 64 µg/mL (≈ 84.7 µM)
[14]; [47]
  MIC: 1 µg/mL (≈ 1.32 µM)
[14]; [48]
  MIC: 2 µg/mL (≈ 2.65 µM)
[15]; [49]
  MIC: 1 µg/mL (≈ 1.32 µM)
[15]; [50]
  MIC: > 64 µg/mL
[16]; [51]
  MIC: 2 µg/mL (≈ 2.65 µM)
[16]; [52]
  MIC: 64 µg/mL (≈ 84.7 µM)
[17]; [53]
  MIC: 0.5 µg/mL (≈ 0.662 µM)
[17]; [54]
  MIC: 0.5 µg/mL (≈ 0.662 µM)
[18]; [31]
  MIC: 4 µg/mL (≈ 5.29 µM)
[18]; [32]
  MIC: 4 µg/mL (≈ 5.29 µM)
[19]; [55]
  MIC: 2 µg/mL (≈ 2.65 µM)
[19]; [56]
  MIC: > 64 µg/mL
[20]; [57]
  MIC: 1 µg/mL (≈ 1.32 µM)
[20]; [58]
  MIC: 2 µg/mL (≈ 2.65 µM)

## CCCN(CC(=O)Nc1cc(N(C)C)c2c(c1O)C(=O)C1=C(O)[C@]3(O)C(=O)C(C(N)=O)=C(O)[C@@H](N(C)C)[C@@H]3C[C@@H]1C2)C(=O)OCOC(=O)c1cc(C)cc(C)c1 [Example 26, ({[(2-{[(5aR,6aS,7S,10aS)-9-(aminocarbonyl)-4,7-bis(dimethylamino)-1,8,10a,11-tetrahydroxy-10,12-dioxo-5,5a,6,6a,7,10,10a,12-octahydrotetracen-2-yl]amino}-2-oxoethyl)(propyl)amino]carbonyl}oxy)methyl 3,5-dimethylbenzoate]
[1]; [21]
  MIC: 1 µg/mL (≈ 1.29 µM)
[1]; [22]
  MIC: 2 µg/mL (≈ 2.57 µM)
[2]; [23]
  MIC: 2 µg/mL (≈ 2.57 µM)
[2]; [24]
  MIC: 4 µg/mL (≈ 5.14 µM)
[3]; [25]
  MIC: 1 µg/mL (≈ 1.29 µM)
[3]; [26]
  MIC: > 64 µg/mL
[4]; [27]
  MIC: 2 µg/mL (≈ 2.57 µM)
[4]; [28]
  MIC: > 64 µg/mL
[5]; [29]
  MIC: 1 µg/mL (≈ 1.29 µM)
[5]; [30]
  MIC: > 64 µg/mL
[6]; [31]
  MIC: 0.25 µg/mL (≈ 0.321 µM)
[6]; [32]
  MIC: 0.25 µg/mL (≈ 0.321 µM)
[7]; [33]
  MIC: 1 µg/mL (≈ 1.29 µM)
[7]; [34]
  MIC: > 64 µg/mL
[8]; [35]
  MIC: 2 µg/mL (≈ 2.57 µM)
[8]; [36]
  MIC: 8 µg/mL (≈ 10.3 µM)
[9]; [37]
  MIC: 0.25 µg/mL (≈ 0.321 µM)
[9]; [38]
  MIC: 0.25 µg/mL (≈ 0.321 µM)
[10]; [39]
  MIC: 0.5 µg/mL (≈ 0.643 µM)
[10]; [40]
  MIC: 0.5 µg/mL (≈ 0.643 µM)
[11]; Staphylococcus aureus, in Mus musculus, iv, read-out: ED50 SIV (Staph aureus Smith)
  ED50: 0.43 mg/kg
[11]; Staphylococcus aureus, in Mus musculus, po, read-out: ED50 SOD (Staph aureus Smith)
  ED50: 8.79 mg/kg
[11]; [41]
  ED50: 8.79 mg/kg
[11]; [42]
  ED50: 0.43 mg/kg
[12]; [43]
  MIC: 32 µg/mL (≈ 41.1 µM)
[12]; [44]
  MIC: > 64 µg/mL
[13]; [45]
  MIC: 2 µg/mL (≈ 2.57 µM)
[13]; [46]
  MIC: > 64 µg/mL
[14]; [47]
  MIC: 1 µg/mL (≈ 1.29 µM)
[14]; [48]
  MIC: 2 µg/mL (≈ 2.57 µM)
[15]; [49]
  MIC: 1 µg/mL (≈ 1.29 µM)
[15]; [50]
  MIC: > 64 µg/mL
[16]; [51]
  MIC: 2 µg/mL (≈ 2.57 µM)
[16]; [52]
  MIC: 64 µg/mL (≈ 82.3 µM)
[17]; [53]
  MIC: 0.5 µg/mL (≈ 0.643 µM)
[17]; [54]
  MIC: 1 µg/mL (≈ 1.29 µM)
[18]; [31]
  MIC: 4 µg/mL (≈ 5.14 µM)
[18]; [32]
  MIC: 4 µg/mL (≈ 5.14 µM)
[19]; [55]
  MIC: 2 µg/mL (≈ 2.57 µM)
[19]; [56]
  MIC: > 64 µg/mL
[20]; [57]
  MIC: 1 µg/mL (≈ 1.29 µM)
[20]; [58]
  MIC: 4 µg/mL (≈ 5.14 µM)
